Experimental data as given in publication PMC5298233, “Substrate-analogous inhibitors exert antimalarial action by targeting the Plasmodium lactate transporter PfFNT at nanomolar scale” (PLoS Pathogens, 2017).
Where two headings read alike, the source gives them in different places.

Tests used:
P. falciparum 3D7 = assay: Viability of cultured P. falciparum parasites (FACS parasitemia); format: cell-based, Plasmodium falciparum; details: for IC50: Plasmodium falciparum, 3D7, 48 h, read-out: IC50 (P. falciparum 3D7)
PfFNT [1] = molecular target: T1, PfFNT (Plasmodium falciparum, UniProt O77389); assay: cell-based
[2] = test system: MMV007839 resistant 3D7 parasites; assay: microbe, parasite or virus in culture; format: cell-based, Plasmodium falciparum; details: for IC50: Plasmodium falciparum, 3D7, read-out: IC50 (P. falciparum resist.)
PfFNT [3] = molecular target: T1, PfFNT; assay: cell-based; details: for hit identification: inhibition of PfFNT transport at 10 μM: 1 mM substrate gradient, compound added 20 min prior; for inhibition at 10 µM: read-out: % Inhib.
rat MCT1 = molecular target: T2, rat MCT1 (Rattus norvegicus, UniProt P53987); assay: L-lactate transport inhibition of MCT1 expressed in yeast; format: cell-based
T2 sequence (P53987 1-494): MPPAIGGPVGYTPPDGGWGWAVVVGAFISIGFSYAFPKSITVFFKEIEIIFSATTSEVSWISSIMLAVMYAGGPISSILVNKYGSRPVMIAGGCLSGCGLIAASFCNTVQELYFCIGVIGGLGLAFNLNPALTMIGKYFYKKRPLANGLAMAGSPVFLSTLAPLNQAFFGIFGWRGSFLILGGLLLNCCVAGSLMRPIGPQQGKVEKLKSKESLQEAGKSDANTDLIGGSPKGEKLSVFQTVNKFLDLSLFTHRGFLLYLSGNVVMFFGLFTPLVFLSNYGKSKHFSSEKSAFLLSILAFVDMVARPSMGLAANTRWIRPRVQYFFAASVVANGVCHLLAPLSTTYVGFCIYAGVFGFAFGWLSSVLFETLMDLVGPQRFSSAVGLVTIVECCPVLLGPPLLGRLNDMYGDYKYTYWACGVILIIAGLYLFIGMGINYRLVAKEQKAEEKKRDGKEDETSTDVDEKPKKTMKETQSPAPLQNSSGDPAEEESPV

BbFNT = molecular target: T3, BbFNT (Babesia bovis, UniProt A7AX62); assay: cell-based; details: wildtype BbFNT; read-out: IC50 (BbFNT / yeast)
T3 sequence (A7AX62 1-279): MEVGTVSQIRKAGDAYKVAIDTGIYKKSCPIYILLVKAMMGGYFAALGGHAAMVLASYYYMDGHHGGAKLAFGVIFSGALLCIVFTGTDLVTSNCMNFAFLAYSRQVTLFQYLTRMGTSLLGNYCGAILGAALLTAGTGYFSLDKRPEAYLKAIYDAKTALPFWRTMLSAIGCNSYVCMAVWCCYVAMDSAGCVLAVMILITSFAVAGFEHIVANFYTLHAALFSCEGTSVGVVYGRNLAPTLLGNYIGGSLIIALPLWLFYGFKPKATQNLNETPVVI

BbFNT S93G = molecular target: T4, BbFNT S93G (Babesia bovis, UniProt A7AX62, S93G); assay: cell-based; details: read-out: IC50 (BbFNT S93G / yeast)
T4 sequence (A7AX62 1-279 S93G): T3 sequence (A7AX62 1-279)

PfFNT [4] = molecular target: T1, PfFNT; details: earlier determined; read-out: affinity of lactate to PfFNT (Km); cited from earlier work
PfFNT [5] = molecular target: T1, PfFNT; details: read-out: IC50 on PfFNT; cited from earlier work
[6] = IC50 (PfFNT / yeast), 20 min incubation with compound, 1 mM L-lactate
[7] = IC50 (PfFNT / yeast), half-maximal lactate transport rate, 20 min treatment

T1 sequence (O77389 whole entry): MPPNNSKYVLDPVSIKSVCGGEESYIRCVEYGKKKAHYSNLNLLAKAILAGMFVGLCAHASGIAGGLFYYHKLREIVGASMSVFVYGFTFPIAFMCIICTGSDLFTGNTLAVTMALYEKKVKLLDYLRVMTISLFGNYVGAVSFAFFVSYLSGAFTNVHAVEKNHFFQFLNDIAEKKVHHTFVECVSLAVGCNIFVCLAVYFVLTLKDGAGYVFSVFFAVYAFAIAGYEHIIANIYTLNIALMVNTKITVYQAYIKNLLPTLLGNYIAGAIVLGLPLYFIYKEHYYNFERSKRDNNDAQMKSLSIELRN

## CCO/C(=C\C(=O)c1ccc(OC)cc1)C(F)(F)C(F)(F)F [BH-296 ethyl ester prodrug]
P. falciparum 3D7
  IC50: 9.3 ± 1.4 µM

## COc1ccc(C(=O)/C=C(\O)C(F)(F)C(F)(F)F)cc1 [BH-296]
P. falciparum 3D7
  IC50: 3.6 ± 0.2 µM
P. falciparum 3D7; compared with PfFNT block in yeast / MMV007839
  less efficient in P. falciparum culture: 25 times
PfFNT [1]; [6]
  IC50: 0.14 ± 0.01 µM
[2]
  shift in IC50, resistant versus non-resistant parental parasites: 2.5 fold
  IC50: 8.6 µM

## O=C1CC(O)(C(F)(F)C(F)(F)F)Oc2ccccc21 (stereo not drawn) [MMV000972]
P. falciparum 3D7
  IC50: 1.7 µM
PfFNT [1]; [7]
  IC50: 0.17 µM
PfFNT [3]
  hit identification: inhibition of PfFNT transport at 10 μM: fully blocked
  inhibition at 10 µM: 102%

## COc1ccc2c(c1)OC(O)(C(F)(F)C(F)(F)F)CC2=O (stereo not drawn) [MMV007839]
Rat MCT1
  IC50: 55 µM
BbFNT
  IC50: 150 µM
P. falciparum 3D7; incubation at IC90 over night
  reduction of parasite growth: 70%
P. falciparum 3D7; short period incubation at IC90 for 1 h
  reduction of parasite growth: 17%
PfFNT [1]
  Ki: 1.4 µM
PfFNT [1]; [7]
  IC50: 0.17 µM
PfFNT [1]; IC50 (PfFNT / yeast; 24 h treatment), compound added 24 h before the assay, last 18 h at 4°C
  IC50: 0.015 µM
PfFNT [1]; Ki versus lactate Km
  higher affinity than the physiological substrate lactate: > 60,000 times
PfFNT [1]; full and half-maximal inhibition, wash-out, up to 2 h
  re-gain of PfFNT transport activity after removal of inhibitor (dissociation): does not re-gain activity within 2 h
[2]
  IC50: 35 µM
PfFNT [3]
  hit identification: inhibition of PfFNT transport at 10 μM: fully blocked
  inhibition at 10 µM: 99.1%
BbFNT S93G
  IC50: 11 µM

## CC(=O)C=C(O)C(F)(F)C(F)(F)F [Pharmacophore, 5,5,6,6,6-pentafluoro-4-hydroxyhex-3-en-2-one]
PfFNT [1]; [6]
  IC50: 1.9 µM

## COc1ccc2c(=O)cc(C(F)(F)C(F)(F)F)oc2c1 [[1]]
PfFNT [1]; [6]
  IC50: > 1000 µM

## COc1ccc2c(c1)OC(C)(C)CC2=O [[2]]
PfFNT [1]; [6]
  IC50: > 1000 µM

## O=C1CC(O)(C(F)(F)C(F)F)Oc2ccc(Cl)cc21 (stereo not drawn) [[3]]
PfFNT [1]; [6]
  IC50: 48 ± 2 µM

## COc1ccc2c(c1)C(=O)CC(O)(C(F)F)O2 (stereo not drawn) [[4]]
PfFNT [1]; [6]
  IC50: > 1000 µM

## COc1ccc2c(c1)OC(O)(C(F)(F)C(F)(F)F)C(C)C2=O (stereo not drawn) [[5]]
PfFNT [1]; [6]
  IC50: 145 ± 8 µM

## O/N=C1\CC(O)(C(F)(F)F)Oc2ccc(Cl)cc21 (stereo not drawn) [[6]]
PfFNT [1]; [6]
  IC50: 315 ± 63 µM

## O=C1CC(O)(C(F)F)Oc2ccccc21 (stereo not drawn) [[7]]
PfFNT [1]; [6]
  IC50: 280 ± 32 µM

## COc1ccc2c(c1)OC(O)(C(F)(F)F)CC2=O (stereo not drawn) [[8]]
PfFNT [1]; [6]
  IC50: 1.1 ± 0.1 µM

## COc1ccc2c(c1)OC(O)(C(F)(F)C(F)F)CC2=O (stereo not drawn) [[9]]
PfFNT [1]; [6]
  IC50: 0.36 ± 0.4 µM

## COc1ccc2c(c1)OC(O)(C(F)(F)C(F)(F)C(F)(F)F)CC2=O (stereo not drawn) [[10]]
P. falciparum 3D7
  IC50: 0.47 ± 0.1 µM
PfFNT [1]; [6]
  IC50: 0.25 ± 0.02 µM

## O=C1CC(O)(C(F)(F)C(F)(F)C(F)(F)C(F)(F)F)Oc2ccccc21 (stereo not drawn) [[11]]
PfFNT [1]; [6]
  IC50: 4.9 ± 0.2 µM

## O=C1CC(O)(C(F)(F)C(F)(F)F)Oc2cc(Cl)ccc21 (stereo not drawn) [[12]]
P. falciparum 3D7
  IC50: 0.28 ± 0.05 µM
PfFNT [1]; [6]
  IC50: 0.12 ± 0.01 µM

## CCOc1ccc2c(c1)OC(O)(C(F)(F)C(F)(F)F)CC2=O (stereo not drawn) [[13]]
P. falciparum 3D7
  IC50: 0.05 µM
PfFNT [1]; [6]
  IC50: 0.24 ± 0.01 µM

## CC(C)Oc1ccc2c(c1)OC(O)(C(F)(F)C(F)(F)F)CC2=O (stereo not drawn) [[14]]
P. falciparum 3D7
  IC50: 0.1 µM
PfFNT [1]; [6]
  IC50: 0.4 ± 0.01 µM

## O=C1CC(O)(C(F)(F)C(F)(F)F)Oc2cc(OCc3ccccc3)ccc21 (stereo not drawn) [[15]]
PfFNT [1]; [6]
  IC50: 0.88 ± 0.03 µM

## CC(O)C(=O)O (stereo not drawn) [lactate]
PfFNT [4]
  Km: 87 mM

## O=C(O)c1cccnc1Nc1cccc(C(F)(F)F)c1 [niflumic acid]
PfFNT [5]
  IC50: > 100 µM
